This is an account of results in patent publication US20060223135A1, “High throughput reactive oxygen species-based cytochrome P450 inhibition assay” (The University of North Carolina at Chapel Hill, priority 2005, published 2006).

The target in assay [1] is T1, CYP3A4 (Homo sapiens, UniProt P08684). As to the kind of experiment: ROS-based fluorescence assay (DCFH-DA oxidation) of inhibition of CYP3A4-mediated testosterone oxidation. The settings on record: ROS-based IC50, recombinant CYP3A4 microsomes, testosterone substrate 40 μM. How it is done: (§1) 1′-hydroxymidazolam and microsomes (SUPERSOMES™) prepared from baculovirus-infected insect cells containing recombinant heterologously expressed human CYP plus NADPH CYP reductase were purchased from GenTest Corp. (Woburn, Mass., United States of America). 6β-hydroxytestosterone and 11α-hydroxyprogesterone were obtained from Steraloids Inc. (Wilton, N.H., United States of America).
T1 sequence (P08684 2-503 limits assumed): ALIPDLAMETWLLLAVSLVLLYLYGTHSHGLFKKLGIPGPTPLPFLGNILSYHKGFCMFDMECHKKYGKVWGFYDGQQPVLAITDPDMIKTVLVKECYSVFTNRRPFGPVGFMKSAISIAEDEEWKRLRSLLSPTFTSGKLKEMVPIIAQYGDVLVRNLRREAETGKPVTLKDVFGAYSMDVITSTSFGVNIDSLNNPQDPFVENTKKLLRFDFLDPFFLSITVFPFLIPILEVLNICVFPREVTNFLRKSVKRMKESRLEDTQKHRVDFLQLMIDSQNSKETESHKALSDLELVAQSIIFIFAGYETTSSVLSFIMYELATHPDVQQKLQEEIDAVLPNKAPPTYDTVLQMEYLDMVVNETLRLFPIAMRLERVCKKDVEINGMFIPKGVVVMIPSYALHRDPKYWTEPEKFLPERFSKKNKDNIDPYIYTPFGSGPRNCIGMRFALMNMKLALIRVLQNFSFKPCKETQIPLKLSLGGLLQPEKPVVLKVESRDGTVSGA
Stock solutions of DCFH-DA (2.5 mM) and NADPH (20 mM) were prepared prior to each experiment in methanol and buffer, respectively. Substrates and inhibitors were prepared in 100% methanol and stored at −20° C. […] Unless otherwise indicated, testosterone were added to the reactions at a final concentration of 40 μM. An equal volume of methanol was added to samples containing no substrate and served as controls. Reactions were performed at 37° C. in 96-well black bottom plates. Inhibitors were added at varying concentrations from stock solutions prepared in either water or methanol. Final methanol concentrations were kept constant among samples (1%, v/v) to eliminate variability in the rate of fluorescence production due to the effect of methanol on CYP activity. […] The concentration of DCF in the reactions was determined using a standard curve constructed with authentic DCF. […]

Assay [2] addresses T1, CYP3A4. Nature of the assay: Conventional LC-UV assay quantifying 6β-hydroxytestosterone formation by CYP3A4. The settings on record: LC-based IC50, recombinant CYP3A4 microsomes, testosterone substrate, LC-UV quantification of 6β-hydroxytestosterone. How it is done:
as §1
Inhibition of CYP3A4-mediated oxidation of testosterone was measured by 6β-hydroxytestosterone formation. The kinetics of 6β-hydroxytestosterone formation by CYP3A4 was determined and compared to rate of fluorescence production. Reactions consisted of varying concentrations of testosterone, 50 pmol CYP3A4 per ml, and buffer to a final volume of one milliliter. Reactions were performed at 37° C. and were started upon addition of 1 mM NADPH. […] Samples were placed immediately on ice and the precipitated protein was removed by centrifugation for four minutes at 13,000 rpm. The supernatant was transferred to HPLC vials for analysis.
HPLC analysis was performed using an Agilent 1100 Series HPLC system (Agilent Technologies, Palo Alto, Calif., United States of America) equipped with an online UV-detector. […]

In the case of `CC[C@H]1OC(=O)[C@H](C)[C@@H](O[C@H]2C[C@@](C)(OC)[C@@H](O)[C@H](C)O2)[C@H](C)[C@@H](O[C@@H]2O[C@H](C)C[C@H](N(C)C)[C@H]2O)[C@](C)(O)C[C@@H](C)C(=O)[C@H](C)[C@@H](O)[C@]1(C)O` [Erythromycin], the IC50 turned out to be 27.6 µM on CYP3A4 [1] and 1.7 µM on CYP3A4 [2].

With `CC(=O)[C@H]1CC[C@H]2[C@@H]3CCC4=CC(=O)CC[C@]4(C)[C@H]3CC[C@]12C` [Progesterone], the IC50 at CYP3A4 [1] was found to be 27.6 µM; at CYP3A4 [2] it was 22.6 µM.
